Results on five molecules are retold here after patent US20240270821A1, “GIP/GLP1/GCG TRI-RECEPTOR AGONISTS AND USES THEREOF” (priority 2023, published 2024).

Holding throughout (assay type): cell-based
Assay [1] has as its target T1, hGIPR (Homo sapiens, UniProt P48546).
T1 sequence (P48546 22-466): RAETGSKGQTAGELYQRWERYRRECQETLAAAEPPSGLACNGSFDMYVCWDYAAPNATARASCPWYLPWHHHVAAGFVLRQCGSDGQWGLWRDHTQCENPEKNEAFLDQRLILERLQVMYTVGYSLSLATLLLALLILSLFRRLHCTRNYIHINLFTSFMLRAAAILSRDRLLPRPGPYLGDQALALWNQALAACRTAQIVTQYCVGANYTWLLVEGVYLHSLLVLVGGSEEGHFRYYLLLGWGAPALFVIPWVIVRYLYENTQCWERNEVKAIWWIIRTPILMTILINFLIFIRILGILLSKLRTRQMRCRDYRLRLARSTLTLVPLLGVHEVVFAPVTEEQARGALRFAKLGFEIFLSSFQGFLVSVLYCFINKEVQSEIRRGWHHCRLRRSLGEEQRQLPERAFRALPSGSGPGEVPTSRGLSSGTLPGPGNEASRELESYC
In words: Functional cAMP activity in the presence of 1% HSA. The note with it: read-out: cAMP Rel EC50, hGIPR.

The target in assay [2] is T2, hGLP-1R (Homo sapiens, UniProt P43220). In words: Functional cAMP activity in the presence of 1% HSA. The note with it: read-out: cAMP Rel EC50, hGLP-1R.
Assay [3] concerns the target human GcgR (Homo sapiens, UniProt P47871). Kind of assay: Functional cAMP activity in the presence of 1% HSA. The conditions noted are these: read-out: cAMP Rel EC50, hGcgR.
For assay [4], the target named is T1, hGIPR. Kind of assay: Functional cAMP activation in the presence of 0.1% casein (no HSA). The note with it: in the presence of 0.1% casein (no HSA); geometric mean; read-out: Relative cAMP EC50, hGIPR.
Assay [5] deals with T2, hGLP-1R. The assay is described as above. The conditions noted are these: in the presence of 0.1% casein (no HSA); geometric mean; read-out: Relative cAMP EC50, hGLP-1R.
For assay [6], the target named is hGcgR (Homo sapiens, UniProt P47871). The description is as above. The note with it: in the presence of 0.1% casein (no HSA); geometric mean; read-out: Relative cAMP EC50, hGcgR.
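Throughout, for Relative cAMP EC50, hGIPR: intracellular cAMP rise after 30 min at 37 °C read by HTRF against a standard curve, scaled between buffer alone (0%) and top control ligand concentration (100%), four-parameter fit.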
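Throughout, for Relative cAMP EC50, hGLP-1R: intracellular cAMP rise after 30 min at 37 °C read by HTRF, normalized between buffer only (0%) and maximal control ligand (100%), four-parameter variable-slope fit.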
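Throughout, for Relative cAMP EC50, hGcgR: intracellular cAMP rise after 30 min at 37 °C, read by HTRF against a cAMP standard curve, scaled from buffer only (0%) to maximal control ligand response (100%).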

T2 sequence (P43220 24-463): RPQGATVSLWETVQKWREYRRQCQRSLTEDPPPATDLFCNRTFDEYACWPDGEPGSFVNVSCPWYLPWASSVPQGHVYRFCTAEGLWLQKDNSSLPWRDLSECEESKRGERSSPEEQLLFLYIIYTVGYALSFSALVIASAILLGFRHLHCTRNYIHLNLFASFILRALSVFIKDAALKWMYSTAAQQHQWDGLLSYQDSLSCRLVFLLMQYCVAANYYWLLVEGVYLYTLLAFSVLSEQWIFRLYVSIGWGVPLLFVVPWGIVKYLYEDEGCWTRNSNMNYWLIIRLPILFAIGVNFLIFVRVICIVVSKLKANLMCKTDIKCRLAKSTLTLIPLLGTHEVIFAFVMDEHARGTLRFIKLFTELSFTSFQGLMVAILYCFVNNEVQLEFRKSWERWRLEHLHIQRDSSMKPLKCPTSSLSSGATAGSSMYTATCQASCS
Sequence of human GcgR (P47871 26-477): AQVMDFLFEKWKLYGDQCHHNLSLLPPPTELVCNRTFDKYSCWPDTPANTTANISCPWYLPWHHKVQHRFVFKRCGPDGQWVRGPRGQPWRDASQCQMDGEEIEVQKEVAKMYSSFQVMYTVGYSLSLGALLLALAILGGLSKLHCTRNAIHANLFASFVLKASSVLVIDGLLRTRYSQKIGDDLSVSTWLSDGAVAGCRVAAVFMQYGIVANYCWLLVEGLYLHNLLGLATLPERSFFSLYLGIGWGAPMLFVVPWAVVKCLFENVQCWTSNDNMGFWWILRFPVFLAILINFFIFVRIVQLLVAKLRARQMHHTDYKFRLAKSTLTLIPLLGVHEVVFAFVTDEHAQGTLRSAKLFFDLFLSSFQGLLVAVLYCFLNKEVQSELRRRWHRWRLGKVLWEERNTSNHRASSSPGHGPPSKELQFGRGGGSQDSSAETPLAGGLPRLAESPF
Sequence of hGcgR (P47871 26-477): as above

For orientation: EC50 means the concentration at which the effect is half-maximal. As for `CC[C@H](C)[C@H](NC(=O)[C@H](CC(C)C)NC(=O)[C@H](Cc1ccc(O)cc1)NC(=O)[C@H](CCC(=O)O)NC(=O)[C@@H](NC(=O)[C@H](Cc1ccccc1)NC(=O)[C@H](CCC(=O)O)NC(=O)[C@](C)(Cc1ccncc1)NC(=O)[C@H](CCC(N)=O)NC(=O)[C@H](C)NC(=O)[C@H](CCCCNC(=O)CC[C@H](NC(=O)CC[C@H](NC(=O)CCCCCCCCCCCCCCCCC(=O)O)C(=O)O)C(=O)O)NC(=O)[C@H](CCCN)NC(=O)[C@H](CC(=O)O)NC(=O)[C@H](CC(C)C)NC(=O)[C@](C)(CC(C)C)NC(=O)[C@H](CCCN)NC(=O)[C@H](CO)NC(=O)[C@H](Cc1ccncc1)NC(=O)[C@H](CC(=O)O)NC(=O)[C@H](CO)NC(=O)[C@@H](NC(=O)[C@H](Cc1ccccc1)NC(=O)[C@@H](NC(=O)CNC(=O)[C@H](CCC(N)=O)NC(=O)C(C)(C)NC(=O)[C@@H](N)Cc1ccc(O)cc1)[C@@H](C)O)[C@@H](C)O)[C@@H](C)CC)C(=O)N[C@@H](C)C(=O)NCC(=O)NCC(=O)N1CCC[C@H]1C(=O)N[C@@H](CO)C(=O)N[C@@H](CO)C(=O)NCC(=O)N[C@@H](C)C(=O)N1CCC[C@H]1C(=O)N1CCC[C@H]1C(=O)N1CCC[C@H]1C(=O)N[C@@H](CO)C(=O)NCC(=O)N[C@@H](CO)C(=O)N[C@@H](CCC(=O)O)C(=O)N[C@@H](CCC(=O)O)C(N)=O` [Example 1001], the EC50 in assay [1] was 20 nM; in assay [2], 295 nM; in assay [3] it was 1170 nM; in assay [4] it was 0.4 nM; in assay [5], 4.59 nM; in assay [6], 22.5 nM.

Take `CC[C@H](C)[C@H](NC(=O)[C@H](Cc1ccccc1)NC(=O)[C@H](C)NC(=O)[C@](C)(Cc1ccncc1)NC(=O)[C@H](CCC(N)=O)NC(=O)[C@H](C)NC(=O)[C@H](CCCCNC(=O)COCCOCCNC(=O)CC[C@H](NC(=O)CC[C@H](NC(=O)CCCCCCCCCCCCCCCCC(=O)O)C(=O)O)C(=O)O)NC(=O)[C@H](CCCN)NC(=O)[C@H](CC(=O)O)NC(=O)[C@H](CC(C)C)NC(=O)[C@](C)(CC(C)C)NC(=O)[C@H](CCC(N)=O)NC(=O)[C@H](CO)NC(=O)[C@H](Cc1ccncc1)NC(=O)[C@H](CC(=O)O)NC(=O)[C@H](CO)NC(=O)[C@@H](NC(=O)[C@H](Cc1ccccc1)NC(=O)[C@@H](NC(=O)CNC(=O)[C@H](CCC(N)=O)NC(=O)C(C)(C)NC(=O)[C@@H](N)Cc1ccc(O)cc1)[C@@H](C)O)[C@@H](C)O)C(=O)N[C@@H](CCC(=O)O)C(=O)N[C@@H](Cc1ccc(O)cc1)C(=O)N[C@@H](CC(C)C)C(=O)N[C@H](C(=O)N[C@@H](CCC(=O)O)C(=O)N[C@H](C)C(=O)NCC(=O)N1CCC[C@H]1C(=O)N[C@@H](CO)C(=O)N[C@@H](CO)C(=O)NCC(=O)N[C@@H](C)C(=O)N1CCC[C@H]1C(=O)N1CCC[C@H]1C(=O)N1CCC[C@H]1C(=O)N[C@@H](CCC(=O)O)C(=O)NCC(=O)N[C@@H](CO)C(N)=O)[C@@H](C)CC` [Example 1020]: the EC50 was 27.3 nM in assay [1]; 146 nM in assay [2]; 478 nM in assay [3]; 0.309 nM in assay [4]; 2.29 nM in assay [5]; 5.87 nM in assay [6].

Take `CC[C@H](C)[C@H](NC(=O)[C@H](Cc1ccccc1)NC(=O)[C@H](C)NC(=O)[C@](C)(Cc1ccncc1)NC(=O)[C@H](CCC(N)=O)NC(=O)[C@H](C)NC(=O)[C@H](CCCCNC(=O)COCCOCCNC(=O)CC[C@H](NC(=O)CC[C@H](NC(=O)CCCCCCCCCCCCCCCCC(=O)O)C(=O)O)C(=O)O)NC(=O)[C@H](CCCN)NC(=O)[C@H](CC(=O)O)NC(=O)[C@H](CC(C)C)NC(=O)[C@](C)(CC(C)C)NC(=O)[C@H](CCC(N)=O)NC(=O)[C@H](CO)NC(=O)[C@H](Cc1ccncc1)NC(=O)[C@H](CC(=O)O)NC(=O)[C@H](CO)NC(=O)[C@@H](NC(=O)[C@H](Cc1ccccc1)NC(=O)[C@@H](NC(=O)CNC(=O)[C@H](CCC(N)=O)NC(=O)C(C)(C)NC(=O)[C@@H](N)Cc1ccc(O)cc1)[C@@H](C)O)[C@@H](C)O)C(=O)N[C@@H](CCC(=O)O)C(=O)N[C@@H](Cc1ccc(O)cc1)C(=O)N[C@@H](CC(C)C)C(=O)N[C@H](C(=O)N[C@@H](CCC(=O)O)C(=O)N[C@H](C)C(=O)NCC(=O)N1CCC[C@H]1C(=O)N[C@@H](CO)C(=O)N[C@@H](CO)C(=O)NCC(=O)N[C@@H](C)C(=O)N1CCC[C@H]1C(=O)N1CCC[C@H]1C(=O)N1CCC[C@H]1C(=O)N[C@@H](CO)C(=O)NCC(=O)N[C@@H](CO)C(=O)N[C@@H](CCC(=O)O)C(N)=O)[C@@H](C)CC` [Example 1022]: the EC50 worked out at 27.9 nM in assay [1]; 203 nM in assay [2]; 586 nM in assay [3]; 0.35 nM in assay [4]; 3.28 nM in assay [5]; 6.93 nM in assay [6].

`CC[C@H](C)[C@H](NC(=O)[C@H](Cc1ccccc1)NC(=O)[C@H](C)NC(=O)[C@](C)(Cc1ccncc1)NC(=O)[C@H](CCC(N)=O)NC(=O)[C@H](C)NC(=O)[C@H](CCCCNC(=O)CC[C@H](NC(=O)CC[C@H](NC(=O)CCCCCCCCCCCCCCCCC(=O)O)C(=O)O)C(=O)O)NC(=O)[C@H](CCCN)NC(=O)[C@H](CC(=O)O)NC(=O)[C@H](CC(C)C)NC(=O)[C@](C)(CC(C)C)NC(=O)[C@H](CCC(N)=O)NC(=O)[C@H](CO)NC(=O)[C@H](Cc1ccncc1)NC(=O)[C@H](CC(=O)O)NC(=O)[C@H](CO)NC(=O)[C@@H](NC(=O)[C@H](Cc1ccccc1)NC(=O)[C@@H](NC(=O)CNC(=O)[C@H](CCC(N)=O)NC(=O)C(C)(C)NC(=O)[C@@H](N)Cc1ccc(O)cc1)[C@@H](C)O)[C@@H](C)O)C(=O)N[C@@H](CCC(=O)O)C(=O)N[C@@H](Cc1ccc(O)cc1)C(=O)N[C@@H](CC(C)C)C(=O)N[C@H](C(=O)N[C@@H](CCC(=O)O)C(=O)N[C@H](C)C(=O)NCC(=O)N1CCC[C@H]1C(=O)N[C@@H](CO)C(=O)N[C@@H](CO)C(=O)NCC(=O)N[C@@H](C)C(=O)N1CCC[C@H]1C(=O)N1CCC[C@H]1C(=O)N1CCC[C@H]1C(=O)N[C@@H](CO)C(=O)NCC(=O)N[C@@H](CO)C(=O)N[C@@H](CCC(=O)O)C(N)=O)[C@@H](C)CC` [Example 1023]: the EC50 in assay [1] was found to be 26 nM; in assay [2] it was 230 nM; in assay [3], 856 nM; in assay [4], 0.235 nM; in assay [5], 1.47 nM; in assay [6], 3.82 nM.

With `CC[C@H](C)[C@H](NC(=O)[C@H](Cc1ccccc1)NC(=O)[C@H](C)NC(=O)[C@](C)(Cc1ccncc1)NC(=O)[C@H](CCC(N)=O)NC(=O)[C@H](C)NC(=O)[C@H](CCCCNC(=O)COCCOCCNC(=O)CC[C@H](NC(=O)CC[C@H](NC(=O)CCCCCCCCCCCCCCCCC(=O)O)C(=O)O)C(=O)O)NC(=O)[C@H](CCCCN)NC(=O)[C@H](CC(=O)O)NC(=O)[C@H](CC(C)C)NC(=O)[C@](C)(CC(C)C)NC(=O)[C@H](CCC(N)=O)NC(=O)[C@H](CO)NC(=O)[C@H](Cc1ccncc1)NC(=O)[C@H](CC(=O)O)NC(=O)[C@H](CO)NC(=O)[C@@H](NC(=O)[C@H](Cc1ccccc1)NC(=O)[C@@H](NC(=O)CNC(=O)[C@H](CCC(N)=O)NC(=O)C(C)(C)NC(=O)[C@@H](N)Cc1ccc(O)cc1)[C@@H](C)O)[C@@H](C)O)C(=O)N[C@@H](CCC(=O)O)C(=O)N[C@@H](Cc1ccc(O)cc1)C(=O)N[C@@H](CC(C)C)C(=O)N[C@H](C(=O)N[C@@H](CCC(=O)O)C(=O)N[C@H](C)C(=O)NCC(=O)N1CCC[C@H]1C(=O)N[C@@H](CO)C(=O)N[C@@H](CO)C(=O)NCC(=O)N[C@@H](C)C(=O)N1CCC[C@H]1C(=O)N1CCC[C@H]1C(=O)N1CCC[C@H]1C(=O)N[C@@H](CO)C(=O)NCC(=O)N[C@@H](CO)C(=O)N[C@@H](CCC(=O)O)C(N)=O)[C@@H](C)CC` [Example 1024], the EC50 in assay [1] was 32.5 nM; in assay [2], 330 nM; in assay [3], 760 nM; in assay [4], 0.441 nM; in assay [5] it was 4.79 nM; in assay [6], 10.6 nM.
